In patent publication US8410104B2, “Pyridazines” (Hoffmann-La Roche Inc., priority 2009, dated 2013) one finds Ki data, which are given here for 9 molecules.

pKi: −log10 of the molar value.

The test has as its target T1, human GABA A α5 receptor (α5β3γ2) (Homo sapiens, UniProt P18507+P31644).
T1 construct: expressed in transfected cells; host or cells: HEK293 cells, transiently transfected; membranes prepared from cell pellets
As to the kind of experiment: [3H]flumazenil competition binding assay, human GABA A α5β3γ2 receptors in HEK293 cells. Particulars: human receptors transiently transfected in HEK293; 0.5 nM [3H]flumazenil; means of two determinations; read-out: hKi GABA A α5. The procedure:
Membrane Preparation and Binding Assay
The affinity of compounds at GABA A receptor subtypes was measured by competition for [^3H]flumazenil (85 Ci/mmol; Roche) binding to HEK293 cells expressing rat (stably transfected) or human (transiently transfected) receptors of composition α1β3γ2, α2β3γ2, α3β3γ2 and α5β3γ2.
Cell pellets were suspended in Krebs-tris buffer (4.8 mM KCl, 1.2 mM CaCl2, 1.2 mM MgCl2, 120 mM NaCl, 15 mM Tris; pH 7.5; binding assay buffer), homogenized by polytron for ca. 20 sec on ice and centrifuged for 60 min at 4° C. (50000 g; Sorvall, rotor: SM24=20000 rpm). The cell pellets were re-suspended in Krebs-tris buffer and homogenized by polytron for ca. 15 sec on ice. Protein was measured (Bradford method, Bio-Rad) and aliquots of 1 mL were prepared and stored at −80° C.
Radioligand binding assays were carried out in a volume of […] (96-well plates) which contained […] of cell membranes, [^3H]flumazenil at a concentration of 1 nM for α1, α2 and α3 subunits and 0.5 nM for α5 subunits and the test compound in the range of […]. Nonspecific binding was defined by 10^−5 M diazepam and typically represented less than 5% of the total binding. Assays were incubated to equilibrium for 1 hour at 4° C. and harvested onto GF/C uni-filters (Packard) by filtration using a Packard harvester and washing with ice-cold wash buffer (50 mM Tris; pH 7.5). After drying, filter-retained radioactivity was detected by liquid scintillation counting. Ki values were calculated using Excel-Fit (Microsoft) and are the means of two determinations.

`CCCCc1noc(C)c1COc1ccc(C(N)=O)nn1` [Example 9, 6-(3-Butyl-5-methyl-isoxazol-4-ylmethoxy)-pyridazine-3-carboxylic acid amide]: the pKi is 8.14.

`CCCCc1noc(C)c1COc1ccc(C(=O)N[C@H]2CCOC2)nn1` [Example 6, (S)-6-(3-Butyl-5-methyl-isoxazol-4-ylmethoxy)-pyridazine-3-carboxylic acid (tetrahydro-furan-3-yl)-amide]: the pKi was 8.07.

As to `CCCCc1noc(C)c1COc1ccc(C(=O)NC(C)C)nn1` [Example 1, 6-(3-Butyl-5-methyl-isoxazol-4-ylmethoxy)-pyridazine-3-carboxylic acid isopropylamide], the pKi was 7.89.

Consider `CCCCc1noc(C)c1COc1ccc(C(=O)N[C@H](C)CO)nn1` [Example 3, 6-(3-Butyl-5-methyl-isoxazol-4-ylmethoxy)-pyridazine-3-carboxylic acid ((R)-2-hydroxy-1-methyl-ethyl)-amide], for which the pKi was 8.15.

For the molecule `CCCCc1noc(C)c1COc1ccc(C(=O)N[C@@H](C)CO)nn1` [Example 5, 6-(3-Butyl-5-methyl-isoxazol-4-ylmethoxy)-pyridazine-3-carboxylic acid ((S)-2-hydroxy-1-methyl-ethyl)-amide], the pKi is 7.76.

For `CCCCc1noc(C)c1COc1ccc(C(=O)NC2CCOCC2)nn1` [Example 2, 6-(3-Butyl-5-methyl-isoxazol-4-ylmethoxy)-pyridazine-3-carboxylic acid (tetrahydro-pyran-4-yl)-amide], the pKi is 7.78.

For `CCCCc1noc(C)c1COc1ccc(C(=O)NC2CCOC2)nn1` (racemic) [Example 8, Rac-6-(3-Butyl-5-methyl-isoxazol-4-ylmethoxy)-pyridazine-3-carboxylic acid (tetrahydro-furan-3-yl)-amide], the pKi is 8.16.

With `CCCCc1noc(C)c1COc1ccc(C(=O)NCC(C)(C)O)nn1` [Example 4, 6-(3-Butyl-5-methyl-isoxazol-4-ylmethoxy)-pyridazine-3-carboxylic acid (2-hydroxy-2-methyl-propyl)-amide], the pKi is 7.76.

For `CCCCc1noc(C)c1COc1ccc(C(=O)NC(C)CO)nn1` (stereo not drawn) [Example 7, 6-(3-Butyl-5-methyl-isoxazol-4-ylmethoxy)-pyridazine-3-carboxylic acid (2-hydroxy-1-methyl-ethyl)-amide], the pKi is 7.98.
